What was measured:
Format in all cases: biochemical
[1] = target: T1, LATS1 (Homo sapiens, UniProt O95835); assay: RBC HotSpot kinase assay (33P-ATP, P81 filter-binding), LATS1; conditions: Table 28, biochemical kinase assay; read-out: LATS1 IC50
T1 sequence (O95835 1-1130): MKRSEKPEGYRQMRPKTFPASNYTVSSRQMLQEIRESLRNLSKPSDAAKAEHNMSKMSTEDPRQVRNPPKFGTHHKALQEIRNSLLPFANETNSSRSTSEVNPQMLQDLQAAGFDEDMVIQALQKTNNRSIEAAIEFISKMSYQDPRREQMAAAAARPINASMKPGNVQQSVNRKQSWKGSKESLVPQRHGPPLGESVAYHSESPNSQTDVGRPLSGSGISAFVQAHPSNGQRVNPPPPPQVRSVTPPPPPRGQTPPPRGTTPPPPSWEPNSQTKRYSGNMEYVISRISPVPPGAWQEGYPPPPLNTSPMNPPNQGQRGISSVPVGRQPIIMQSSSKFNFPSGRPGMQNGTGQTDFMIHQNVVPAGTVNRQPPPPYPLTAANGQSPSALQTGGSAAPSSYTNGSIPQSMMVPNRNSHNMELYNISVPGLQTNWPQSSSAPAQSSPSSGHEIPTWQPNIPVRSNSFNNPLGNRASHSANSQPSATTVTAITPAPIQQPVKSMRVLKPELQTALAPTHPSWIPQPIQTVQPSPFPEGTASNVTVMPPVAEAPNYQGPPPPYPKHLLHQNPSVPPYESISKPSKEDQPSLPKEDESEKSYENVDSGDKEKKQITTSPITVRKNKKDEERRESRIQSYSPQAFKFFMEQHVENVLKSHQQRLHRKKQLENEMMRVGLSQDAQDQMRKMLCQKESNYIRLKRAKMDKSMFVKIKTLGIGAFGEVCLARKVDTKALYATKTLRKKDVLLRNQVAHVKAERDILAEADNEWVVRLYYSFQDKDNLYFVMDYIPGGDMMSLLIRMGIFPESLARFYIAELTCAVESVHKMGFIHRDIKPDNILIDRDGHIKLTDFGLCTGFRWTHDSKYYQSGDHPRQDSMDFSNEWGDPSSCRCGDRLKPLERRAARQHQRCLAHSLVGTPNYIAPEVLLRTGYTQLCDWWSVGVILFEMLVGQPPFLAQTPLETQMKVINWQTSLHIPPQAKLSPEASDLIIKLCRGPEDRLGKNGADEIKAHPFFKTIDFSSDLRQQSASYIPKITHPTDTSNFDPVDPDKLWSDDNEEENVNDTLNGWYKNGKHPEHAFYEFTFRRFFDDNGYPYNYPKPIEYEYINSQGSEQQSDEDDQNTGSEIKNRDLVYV
Summary of the method: (§1)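 Hepes pH 7.5/MgCl2/EGTA/Brij35/BSA/Na3VO4/DTT buffer, cofactors per kinase; cpd acoustically dispensed, 20 min preinc RT; start w/ 33P-ATP, 2 h RT; P81 filter readout; 10-pt singlet IC50.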

[2] = target: T2, LATS2 (Homo sapiens, UniProt Q9NRM7); assay: RBC HotSpot kinase assay (33P-ATP, P81 filter-binding), LATS2; conditions: Table 28, biochemical kinase assay; read-out: LATS2 IC50
T2 sequence (Q9NRM7 1-1088): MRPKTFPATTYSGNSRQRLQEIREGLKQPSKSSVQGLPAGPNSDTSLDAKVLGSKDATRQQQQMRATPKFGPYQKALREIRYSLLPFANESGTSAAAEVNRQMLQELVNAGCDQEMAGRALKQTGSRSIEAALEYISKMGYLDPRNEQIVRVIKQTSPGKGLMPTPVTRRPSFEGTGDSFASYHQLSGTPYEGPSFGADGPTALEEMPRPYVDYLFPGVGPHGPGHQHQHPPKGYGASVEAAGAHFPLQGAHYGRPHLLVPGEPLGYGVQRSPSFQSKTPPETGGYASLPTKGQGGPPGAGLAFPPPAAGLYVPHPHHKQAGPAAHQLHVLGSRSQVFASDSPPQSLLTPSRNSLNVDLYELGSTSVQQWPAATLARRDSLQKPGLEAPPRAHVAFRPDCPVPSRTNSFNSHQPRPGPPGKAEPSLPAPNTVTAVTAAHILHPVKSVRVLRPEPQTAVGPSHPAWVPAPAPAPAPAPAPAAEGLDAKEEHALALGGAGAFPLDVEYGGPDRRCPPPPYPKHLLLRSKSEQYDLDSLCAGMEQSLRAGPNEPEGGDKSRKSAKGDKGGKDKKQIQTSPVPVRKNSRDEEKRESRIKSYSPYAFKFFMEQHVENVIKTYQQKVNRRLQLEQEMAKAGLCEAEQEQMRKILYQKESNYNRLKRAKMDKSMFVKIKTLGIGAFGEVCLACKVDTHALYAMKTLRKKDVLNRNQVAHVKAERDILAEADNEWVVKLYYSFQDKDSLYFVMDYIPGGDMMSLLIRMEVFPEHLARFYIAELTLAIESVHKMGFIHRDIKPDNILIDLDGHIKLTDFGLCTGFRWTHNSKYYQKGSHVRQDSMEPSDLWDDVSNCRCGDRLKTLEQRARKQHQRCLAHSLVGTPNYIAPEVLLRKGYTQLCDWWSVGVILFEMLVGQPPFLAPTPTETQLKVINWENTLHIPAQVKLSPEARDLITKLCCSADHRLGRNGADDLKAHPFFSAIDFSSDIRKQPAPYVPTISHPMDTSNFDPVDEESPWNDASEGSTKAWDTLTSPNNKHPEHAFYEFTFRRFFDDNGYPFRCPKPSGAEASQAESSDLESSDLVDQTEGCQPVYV
Summary of the method: as §1

[3] = target: AKT (Homo sapiens, UniProt P31749); assay: RBC HotSpot kinase assay (33P-ATP, P81 filter-binding), AKT; conditions: Table 28, biochemical kinase assay; read-out: AKT IC50
Chain of AKT (P31749 whole entry): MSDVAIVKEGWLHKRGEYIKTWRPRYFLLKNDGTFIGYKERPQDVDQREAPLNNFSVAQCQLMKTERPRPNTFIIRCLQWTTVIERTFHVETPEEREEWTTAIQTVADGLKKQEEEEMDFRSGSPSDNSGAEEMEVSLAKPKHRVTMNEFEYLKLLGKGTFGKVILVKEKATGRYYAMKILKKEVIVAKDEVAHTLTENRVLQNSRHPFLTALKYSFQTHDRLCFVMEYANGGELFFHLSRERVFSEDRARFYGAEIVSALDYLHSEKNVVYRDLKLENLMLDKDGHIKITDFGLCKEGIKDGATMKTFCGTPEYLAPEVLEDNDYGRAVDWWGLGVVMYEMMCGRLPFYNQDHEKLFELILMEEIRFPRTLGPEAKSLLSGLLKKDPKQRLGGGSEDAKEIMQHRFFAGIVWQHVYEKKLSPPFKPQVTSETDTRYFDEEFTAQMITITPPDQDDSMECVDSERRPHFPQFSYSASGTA
Summary of the method: as §1

| SMILES | IC50 [1] | IC50 [2] | IC50 [3] |
| --- | --- | --- | --- |
| c1cc(-c2ccc3c(c2)CNC3)c2cc[nH]c2n1 [Compound 265, 4-(isoindolin-5-yl)-1H-pyrrolo[2,3-b]pyridine] | 14 nM | 13 nM | 517 nM |
| COc1cc(-c2ccnc3[nH]ccc23)ccc1CN [Compound 268, (2-methoxy-4-(1H-pyrrolo[2,3-b]pyridin-4-yl)phenyl) methanamine] | 24 nM | 24 nM | 618 nM |
| CCOc1cc(-c2ccnc3[nH]ccc23)ccc1CN [Compound 269, (2-ethoxy-4-(1H-pyrrolo[2,3-b]pyridin-4-yl)phenyl) methanamine] | 40 nM | 36 nM | 789 nM |
| NCc1ccc(-c2ccnc3[nH]ccc23)cc1F [Compound 270, (2-fluoro-4-(1H-pyrrolo[2,3-b]pyridin-4-yl)phenyl) methanamine] | 28 nM | 34 nM | 874 nM |
| NCc1ccc(-c2c(Cl)cnc3[nH]ccc23)cc1 [Compound 272, (4-(5-chloro-1H-pyrrolo[2,3-b]pyridin-4-yl)phenyl) methanamine] | 447 nM | 268 nM | 3100 nM |
| NCc1ccc(-c2c(F)cnc3[nH]ccc23)cc1 [Compound 273, (4-(5-fluoro-1H-pyrrolo[2,3-b]pyridin-4-yl)phenyl) methanamine] | 90 nM | 148 nM | 1390 nM |
| c1ccc(CNCc2ccc(-c3ccnc4[nH]ccc34)cc2)cc1 [Compound 274, N-(4-(1H-pyrrolo[2,3-b]pyridin-4-yl)benzyl)-1-phenylmethanamine] | 36.6 nM | 60.5 nM | 2430 nM |
| c1cc(-c2ccc(CN3CCCC3)cc2)c2cc[nH]c2n1 [Compound 277, 4-(4-(pyrrolidin-1-ylmethyl)phenyl)-1H-pyrrolo[2,3-b]pyridine] | 63 nM | 100 nM | 2200 nM |
| c1cc(-c2ccc(C3CCCN3)cc2)c2cc[nH]c2n1 (stereo not drawn) [Compound 278, 4-(4-(pyrrolidin-2-yl)phenyl)-1H-pyrrolo[2,3-b]pyridine] | 17 nM | 33 nM | 321 nM |
| Fc1ccc(CNCc2ccc(-c3ccnc4[nH]ccc34)cc2)cc1 [Compound 279, N-(4-(1H-pyrrolo[2,3-b]pyridin-4-yl)benzyl)-1-(4-fluorophenyl) methanamine] | 9.8 nM | 29.3 nM | 1080 nM |
| Fc1cccc(CNCc2ccc(-c3ccnc4[nH]ccc34)cc2)c1 [Compound 280, N-(4-(1H-pyrrolo[2,3-b]pyridin-4-yl)benzyl)-1-(3-fluorophenyl) methanamine] | 10.8 nM | 25.6 nM | 859 nM |
| CC(C)(O)C#Cc1cc(-c2ccnc3[nH]ccc23)ccc1CNCc1ccc(F)cc1 [Compound 281, 4-(2-(((4-fluorobenzyl)amino)methyl)-5-(1H-pyrrolo[2,3-b]pyridin-4-yl)phenyl)-2-methylbut-3-yn-2-ol] | 82.4 nM | 170 nM | 4620 nM |
| Fc1ccc(CNCc2ccc(-c3ccnc4[nH]ccc34)cc2Cl)cc1 [Compound 282, N-(2-chloro-4-(1H-pyrrolo[2,3-b]pyridin-4-yl)benzyl)-1-(4-fluorophenyl) methanamine] | 31.4 nM | 59.2 nM | 3800 nM |
| NCc1ccc(-c2ccnc3[nH]ccc23)cc1Cl [Compound 283, (2-chloro-4-(1H-pyrrolo[2,3-b]pyridin-4-yl)phenyl) methanamine] | 8 nM | 20 nM | 732 nM |
| FC(F)(F)Oc1cccc(CNCc2ccc(-c3ccnc4[nH]ccc34)cc2)c1 [Compound 285, N-(4-(1H-pyrrolo[2,3-b]pyridin-4-yl)benzyl)-1-(3-(trifluoromethoxy)phenyl) methanamine] | 167 nM | 191 nM | 1990 nM |
| NCc1ccc(-c2ccnc3[nH]ccc23)c(C(F)(F)F)c1 [Compound 286, (4-(1H-pyrrolo[2,3-b]pyridin-4-yl)-3-(trifluoromethyl)phenyl) methanamine] | 5050 nM | 1260 nM | 3410 nM |
| COC(=O)c1c[nH]c2nccc(-c3ccc([C@@]4(O)[C@H](C)CNC[C@@H]4C)c(C)c3)c12 [Compound 300, methyl 4-(4-((3S,4s,5R)-4-hydroxy-3,5-dimethylpiperidin-4-yl)-3-methylphenyl)-1H-pyrrolo[2,3-b]pyridine-3-carboxylate] | 3.2 nM | 1.6 nM | 282 nM |
| CCc1cc(-c2ccnc3[nH]cc(F)c23)ccc1[C@@]1(O)[C@H](C)CNC[C@@H]1C [Compound 302, (3S,4s,5R)-4-(2-ethyl-4-(3-fluoro-1H-pyrrolo[2,3-b]pyridin-4-yl)phenyl)-3,5-dimethylpiperidin-4-ol] | 8.7 nM | 4.9 nM | 39.5 nM |
| Cc1cc(-c2ccnc3[nH]cc(Cl)c23)cc(F)c1[C@@]1(O)[C@H](C)CNC[C@@H]1C [Compound 303, (3S,4s,5R)-4-(4-(3-chloro-1H-pyrrolo[2,3-b]pyridin-4-yl)-2-fluoro-6-methylphenyl)-3,5-dimethylpiperidin-4-ol] | 4.8 nM | 3.3 nM | 246 nM |
| CCc1cc(-c2ccnc3[nH]cc(F)c23)ccc1[C@@]1(O)[C@H](C)CN(C2CCS(=O)(=O)CC2)C[C@@H]1C [Compound 306, 4-((3S,4s,5R)-4-(2-ethyl-4-(3-fluoro-1H-pyrrolo[2,3-b]pyridin-4-yl)phenyl)-4-hydroxy-3,5-dimethylpiperidin-1-yl)tetrahydro-2H-thiopyran 1,1-dioxide] | 11.6 nM | 5.4 nM | 31.2 nM |
| Cc1cc(-c2ccnc3[nH]cc(Cl)c23)cc(F)c1[C@@]1(O)[C@H](C)CN(C2CCS(=O)(=O)CC2)C[C@@H]1C [Compound 307, 4-((3S,4s,5R)-4-(4-(3-chloro-1H-pyrrolo[2,3-b]pyridin-4-yl)-2-fluoro-6-methylphenyl)-4-hydroxy-3,5-dimethylpiperidin-1-yl)tetrahydro-2H-thiopyran 1,1-dioxide] | 4.2 nM | 3.1 nM | 206 nM |

Reference: US20250361230A1, “LATS Inhibitors and Uses Thereof” (The USA, as Represented by the Secretary, Dept. of Heath …, priority 2022, published 2025)
